# Article PMC5428013, “Peptide-Au Clusters Induced Tumor Cells Apoptosis via Targeting Glutathione Peroxidase-1: The Molecular Dynamics Assisted Experimental Studies” (Scientific Reports, 2017)
# How the values were obtained:
# PARP = experiment: Cleaved PARP level, western blotting; format: cell-based, human; conditions: serial Au doses (0, 100, 200, 400, 800 μM), 48 h
# Protocol: The expression of GPx-1, caspase-3 and PARP from Au25P1_9 treated A549 cells were analyzed by western blotting. A549 cells were prior seeded on 6-well plate (at the density of 1 × 10^5 cells/well) for 24 h. Then the medium was discarded and fresh culture medium with Au25P1_9 at different doses was added to make cells exposed to final Au doses at 0, 100, 200, 400 and 800 μM, respectively. After another 48 h incubation, the cells were harvested and lysed by cell lysis buffer for Western and IP (containing 20 mM Tris-HCl, pH7.5, 150 mM NaCl, 1% Triton X-100, sodium pyrophosphate, β-glycerophosphate, EDTA, Na3VO4 and leupeptin), protease inhibitor cocktail tablet and 1 mM PMSF for 15 min on a shaker at 4 °C. The lysed cells were collected and centrifuged for 15 min at 12,000 g to get total protein of cells. The protein dose of each sample was prior quantified, and then loading buffer was added. After boiling for 5 min, the protein samples with equal amount were separated on 12% SDS polyacrylamide gel electrophoresis and then transferred onto the polyvinylidene difluoride (PVDF) membrane. Membrane was blocked by 5% nonfat dried milk prepared in tris(hydroxymethyl)amin omethane-NaCl-Tween 20 (TBST) at room temperature for 1 h, and then incubated with primary antibodies specific to β-actin, Caspase-3, PARP and GPx-1 at 4 °C overnight, respectively. […]
# A549 cells [1] = experiment: Intracellular ROS level by CLSM (CM-H2DCFDA); format: cell-based, human; conditions: Au25P1_9, final Au dose 800 µM, 48 h, 5 µM CM-H2DCFDA
# Protocol: For CLSM observation, cells were prior cultured on glass-bottom dishes. Au25P1_9 was added to culture medium and the final Au dose was 800 µM. After 48 h. the cells were washed three times with PBS and incubated with 5 µM CM-H2DCFDA, at 37 °C under darkness for 30 min. Before CLSM observation, the culture medium was discarded and the cells were washed three times with PBS, supplemented with fresh culture medium. Finally, ROS in cells were highlighted by green fluorescence emission of CM-H2DCFDA, imaged under Nikon Ti-e microscope with excitation at wavelengths of 488 nm. For flow cytometry analysis, cells were prior seeded on 6-well plate (at the density of 1 × 10^5 cells/well) for 24 h. Then the medium was discarded and fresh culture medium containing Au25P1_9 with Au dose at 800 μM was added. For another 48 h incubation, the cells were washed thrice with PBS, and incubated with 5 µM CM-H2DCFDA at 37 °C under darkness for 30 min. After washing with PBS, the cells were collected and suspended in ice cold PBS. Fluorescence intensity of 20,000 events was recorded using an Accuri C6 flow cytometer and the level of intracellular ROS was analyzed by Cflow software.
# caspase-3 = experiment: Caspase-3 activity assay (Nucview488, CLSM); format: cell-based, human; conditions: 800 µM Au, 48 h, 5 µM Nucview488 substrate
# Protocol: A549 cells were seeded on glass-bottom dishes for 24 h, and the Au25P1_9 was added to culture medium and final Au dose was 800 µM. A549 cells were next exposed to Au25P1_9 for 48 h. Then the cells were washed three times with PBS and incubated with 5 µM Nucview488 caspase-3 substrate (which can be cleaved by caspase-3 and release the DNA dye to stain DNA with bright green fluorescence during apoptosis) at room temperature for 30 min. Finally, cells were washed with PBS and observed by CLSM with excitation at wavelengths of 488 nm.
# A549 cells [2] = experiment: Mitochondrial membrane potential assay (JC-1); format: cell-based, human; conditions: 800 µM Au, 48 h, JC-1, CLSM
# Protocol: Disruption of ΔΨm is an important step in the induction of cellular apoptosis. JC-1, a sensitive mitochondrial dye, was used to evaluate the ΔΨm. JC-1 can aggregates in the mitochondrial matrix to yield red fluorescence (λem = 590 nm) at high mitochondrial membrane potential, while JC-1 monomer has green fluorescence at low mitochondrial membrane potential (λem = 527 nm). Therefore, using JC-1 easily signals the loss of ΔΨm, an event of early cell apoptosis. After treated with 800 µM of Au25P1_9 for 48 h on glass-bottom dish, cells were stained with JC-1 at 37 °C for 20 min under darkness. Then, cells were washed twice with cold buffer solution and JC-1 fluorescence inside cells was immediately observed by CLSM.
# HCT-8 cells = experiment: Cell viability assay (CCK-8), HCT-8; format: cell-based, human; conditions: HCT-8, same condition as A549
# Protocol: Briefly, cells were prior cultured on 96-well plates (at the density of 5 × 10^3 cells/well) for 24 h to allow cells attachment. The cells were treated with different doses of these free peptides (0, 1, 4, 16, 64, 256, 1024 µM) and peptide-Au clusters (0, 50, 100, 200, 400, 800 µM in Au dose) for 48 h, respectively. The cells were washed three times with PBS and then incubated with fresh growth medium containing 10% (v/v) CCK-8 reagent for 1 h at 37 °C for cell viability assay. The absorbance was measured at 450 nm by using a microplate reader (SpectraMAX M2, Sunnyvale, California). Cell viability of untreated cells was set as 100%, and that of treated cells were expressed as a relative percentage of untreated cells. All data were shown as mean percentages ± standard deviation from three independent experiments.
# GPx-1 = GPx-1 activity in A549 cell lysate; format: biochemical, human; conditions: Au dose 0, 5, 25, 100, 400 μM, 10 min
# Protocol: A549 cells were prior seeded on 6-well plate (at the density of 1 × 10^5 cells/well) for 24 h. Then the medium was discarded and fresh culture medium with Au25P1_9 at different doses was added to make cells exposed to final Au doses at 0, 100, 200, 400 and 800 μM, respectively. After another 48 h incubation, the cells were washed thrice with PBS and lysed by cell lysis buffer containing 1 mM PMSF for 15 min on a shaker at 4 °C. The lysed cells were collected and centrifuged for 20 min at 12,000 g to get total protein of cells. The protein dose of each sample was quantified by BCA Protein Assay Kit and the GPx-1 activity of peptide-Au clusters treated A549 cells was measured by GPx Activity Colorimetric Assay Kit, respectively. For the control experiments, a series of Au doses of Au25P1_9 at 0, 5, 25, 100, 400 μM were incubated with the GPx-1 containing cell lysate of A549 cells for 10 min and the GPx-1 activity of theses samples was also measured. The GPx-1 activity of untreated samples was set as 100%, and that of peptide-Au clusters treated samples were expressed as a relative percentage of untreated ones.
sequence,measurement,setting,value
"CCYGGPEEEEEVG [Au25P1_9, Au25 cluster coated by nine P1 peptides (…)]",cleaved PARP level,PARP,Au dose-dependent increase of cleaved caspases-3 and cleaved PARP levels
same,intracellular ROS by CLSM,A549 cells [1],"obvious green fluorescence, a sign of increased intracellular ROS"
same,caspase-3 activation,caspase-3,strong Nucview488 emission
same,mitochondrial membrane potential change,A549 cells [2],"a red to green emission shift can be observed in most cells after treated with Au25P1_9, indicating mitochondria depolarization"
same,change of cell viability,HCT-8 cells,almost negligible
same,GPx-1 activity in cell lysate,GPx-1,suppressed via an Au dose dependent manner
